The results in this text go back to patent US9260756B2, “Esophageal microRNA expression profiles in eosinophilic esophagitis” (CHILDREN'S HOSPITAL MEDICAL CENTER, priority 2012, dated 2016).

One experiment concerns miR-375. Put plainly: qRT-PCR of miR-375 in esophageal biopsies of EE patients. It counts as in vivo, human. As to conditions: EE patients that responded to therapy, qPCR normalized to U6. The source says:
Patients were selected without regard to age, race, or sex. Normal patients presented to the clinic with symptoms consistent with gastroesophageal reflux disease or EE, but the endoscopic and histologic findings for these patients were normal. […] The active chronic esophagitis patients had eosinophil counts of 1-15 per 400×hpf in the esophageal biopsies. Patients with systemic or swallowed topical glucocorticoid use were excluded from the selection of active EE or active chronic esophagitis patients.
Levels of miRNA expression were measured quantitatively by using the TaqMan MicroRNA Assays (Applied Biosystems), following the manufacturer's protocol. The expression levels were normalized to the U6 endogenous control. Relative expression was calculated as previously described (Lu, T. et al. J. Immunol. 182:4994-5002 (2009)).
In general terms: In qPCR the cycle at which signal appears reflects the starting amount.

In experiment [1] the test system is bone marrow-derived eosinophils. The experiment is described as follows: Cell growth after picropodophyllin treatment, cell counting using a hemacytometer. It counts as cell-based, mouse. The note with it: for growth of miR-223+/+ and miR-223-/- eosinophil cultures: 2 μM picropodophyllin from day 8, counted day 10 and day 12, vs DMSO. Here is the method: Bone marrow cells were collected from femurs and tibia of the mice, and the stem/progenitor cell-enriched low-density fraction was isolated by gradient centrifugation using the Histopaque 1083 (Sigma), according to the manufacturer's protocol. The low density fraction of bone marrow cells were cultured in IMDM with 10% FBS, 100 U/ml penicillin, and 100 μg/ml streptomycin supplemented with 100 ng/mL stem cell factor and 100 ng/mL FLT-3 ligand (Peprotech) from day 0 to day 4.
The stem cell factor and FLT-3 ligand were replaced with 10 ng/mL IL-5 on day 4, and the cells were cultured for an additional 10-12 days in the presence of IL-5 (Dyer, K. et al. J. Immunol. 181:4004-9 (2008)). The culture media was changed every other day, and cells were counted and concentration was adjusted to 1×10^6/mL during each media change. Eosinophil maturity was assessed by FACS staining for CCR3 and Siglec-F and/or Diff-Quik (Fisher Scientific) staining of cytospin preparations. Eosinophil progenitor growth was assessed by counting the cells every 2 days using a hemacytometer.
(§1) Bone marrow-derived eosinophils were re-suspended at a concentration of 1×10^6 cells/ml and treated with DMSO or 2 μM of picropodophyllin at day 8 (Yin, S. et al. Neuro. Oncol. 12:19-27 (2010)). Cell growth was determined by cell counting using a hemacytometer on day 10 and day 12. Cell lysates were collected on day 10, and levels of IGF1R expression were determined by western blot.

For another experiment, the target named is T1, IGF1R (Mus musculus, UniProt Q60751).
T1 construct: endogenous in cells; host or cells: bone marrow-derived eosinophil (progenitor) cultures from miR-223+/+ and miR-223-/- mice
T1 sequence (Q60751 31-1373): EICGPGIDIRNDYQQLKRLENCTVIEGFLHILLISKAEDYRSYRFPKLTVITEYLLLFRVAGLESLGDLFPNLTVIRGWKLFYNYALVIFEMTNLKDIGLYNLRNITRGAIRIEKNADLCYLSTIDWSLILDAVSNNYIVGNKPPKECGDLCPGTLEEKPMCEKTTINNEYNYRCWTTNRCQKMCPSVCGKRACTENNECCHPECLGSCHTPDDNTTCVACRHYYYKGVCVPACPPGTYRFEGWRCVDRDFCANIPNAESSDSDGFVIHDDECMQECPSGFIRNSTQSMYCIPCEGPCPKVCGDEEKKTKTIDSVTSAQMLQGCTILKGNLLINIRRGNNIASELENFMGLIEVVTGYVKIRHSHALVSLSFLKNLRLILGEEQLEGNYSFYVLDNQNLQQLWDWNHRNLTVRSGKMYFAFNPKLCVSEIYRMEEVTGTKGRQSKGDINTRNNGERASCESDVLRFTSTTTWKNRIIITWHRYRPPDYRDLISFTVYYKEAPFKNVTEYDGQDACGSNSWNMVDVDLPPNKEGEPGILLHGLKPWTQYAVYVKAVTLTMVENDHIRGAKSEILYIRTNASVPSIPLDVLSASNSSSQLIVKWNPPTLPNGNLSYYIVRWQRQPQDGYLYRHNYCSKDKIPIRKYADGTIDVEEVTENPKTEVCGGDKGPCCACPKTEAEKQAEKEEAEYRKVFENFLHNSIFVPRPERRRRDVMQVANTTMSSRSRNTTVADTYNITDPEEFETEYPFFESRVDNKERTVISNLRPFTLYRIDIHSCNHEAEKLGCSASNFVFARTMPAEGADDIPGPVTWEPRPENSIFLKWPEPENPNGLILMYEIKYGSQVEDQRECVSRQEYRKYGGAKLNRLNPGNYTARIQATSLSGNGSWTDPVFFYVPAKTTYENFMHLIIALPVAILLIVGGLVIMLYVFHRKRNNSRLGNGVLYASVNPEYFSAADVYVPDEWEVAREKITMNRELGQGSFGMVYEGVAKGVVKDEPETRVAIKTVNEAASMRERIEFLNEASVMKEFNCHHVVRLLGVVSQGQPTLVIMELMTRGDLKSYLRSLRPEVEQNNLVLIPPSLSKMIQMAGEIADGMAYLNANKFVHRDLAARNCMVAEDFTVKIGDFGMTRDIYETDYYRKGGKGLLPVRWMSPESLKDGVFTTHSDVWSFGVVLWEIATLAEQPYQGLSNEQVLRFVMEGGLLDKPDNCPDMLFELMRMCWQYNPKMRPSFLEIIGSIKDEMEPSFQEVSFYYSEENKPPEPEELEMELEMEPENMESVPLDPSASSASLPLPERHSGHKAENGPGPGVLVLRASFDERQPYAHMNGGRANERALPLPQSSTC
Put plainly: IGF1R expression by western blot after picropodophyllin treatment. As to conditions: day 10, after 2-day treatment with 2 μM picropodophyllin, both miR-223+/+ and miR-223-/- cultures. It counts as cell-based. As to the method:
Cells were rapidly washed in phosphate buffered saline and lysed in M-PER mammalian protein extraction reagent (Pierce, Rockford, Ill.), according to the manufacturer's protocol. Protease inhibitor cocktails (Pierce) and phosphatase inhibitor cocktails (Pierce) were added to the M-PER protein extraction reagent immediately before lysis. Western blot analysis was performed, as described in a previous protocol (Lim, E. et al. J. Biol. Chem. 286:13193-204 (2011)). The assay was conducted using an anti-IGF1R antibody (Cell Signaling Technology, Danvers, Mass.) and an anti-GAPDH antibody (Abcam, Cambridge, UK).
as §1
On the technique in general: A western blot detects proteins with antibodies after separation by electrophoresis.

In experiment [2] the test system is human bronchial epithelial cells. Put plainly: miRNA expression in IL-13-stimulated human bronchial epithelial cells (microarray, qPCR). The experiment is classed as cell-based. As to conditions: normal human bronchial epithelial cells, after 24 and 48 hours of IL-13 stimulation, normalized to U6. As to the method: (§2) Human esophageal epithelial cells derived from human patient biopsies were cultured, as described in a previous protocol (Blanchard, C. et al. J. Allergy Clin. Immunol. 120:1292-300 (2007)). The human bronchial epithelial cell line HBEC was cultured as previously described (Ramirez, R. et al. Cancer Res. 64:9027-34 (2004)). The normal human bronchial epithelial cells (Lonza, Basel, Switzerland) were cultured, as described in a previous protocol (Kariyawasam, H. et al. J. Allergy Clin. Immunol. 124:454-462 (2009)). The U937 monocytes and Jurkat T cells were cultured in RPMI 1640 medium (Fisher Scientific) supplemented with 10% FBS, 100 U/mL penicillin, and 100 μg/ml streptomycin. […]
(§3) Human esophageal epithelial cells and bronchial epithelial cells were stimulated with media or 100 ng/mL IL-13 for 24 hours. […] RNA quality was assessed using the 2100 bioanalyzer (Agilent Technologies), and only samples with RNA integrity number >8 were used. […]
(§4) The miRNAs differentially regulated between unstimulated and IL-13 stimulated samples were identified by normalizing the expression data to the average of two endogenous control probes, namely RNU44 and RNU48, then filtered on cycle threshold values <35 and at least a 2-fold change between unstimulated and IL-13-stimulated samples. Statistical significance was determined at p<0.05 with Benjamini Hochberg false discovery rate correction. […]

For experiment [3], the system named is human esophageal epithelial cells. Put plainly: miRNA expression in IL-13-stimulated human esophageal epithelial cells (microarray, qPCR). It counts as cell-based. As to conditions: after 24 and 48 hours of IL-13 stimulation, normalized to U6. As to the method:
as §2, §3, §4

For the compound `CCC(=O)O[C@]1(C(=O)SCF)[C@H](C)C[C@H]2[C@@H]3C[C@H](F)C4=CC(=O)C=C[C@]4(C)[C@@]3(F)[C@@H](O)C[C@@]21C` [fluticasone propionate], the “miR-375 levels in esophageal tissue” value in the experiment with miR-375 is given as “comparable to normal healthy controls”.
With `COc1cc([C@@H]2c3cc4c(cc3[C@H](O)[C@H]3COC(=O)[C@@H]23)OCO4)cc(OC)c1OC` [picropodophyllin], the “growth of miR-223+/+ and miR-223-/- eosinophil cultures” value in experiment [1] was “inhibited”; in experiment [1] (listed as pricopodphyllin), “inhibits”. Further, the “increased proliferation seen in miR-223-/- cultures” value in experiment [1] (2 μM picropodophyllin, miR-223-/- vs miR-223+/+ cultures) is “completely reversing”. The “IGF1 receptor expression level” value on IGF1R is “nearly complete down-regulation”.
With “IL-13: cytokine used at 100 ng/mL to stimulate human esophageal and bronchial epithelial cells”, the miR-375 expression entry in experiment [2] and in experiment [3] was “down-regulated” each time.
